Measured values: patent publication US9006139B2, “Active compound combinations” (Bayer Intellectual Property GmbH, priority 2009, dated 2015)
Read-outs that look alike come from different tables or passages of the source.

Columns and labels:
Format in all cases: in vivo
Sphaerotheca fuliginea = experiment: Sphaerotheca test (cucumbers)/protective; details: Table C; for pest or weed control at 5 ppm: 5 ppm a.i.
Protocol: (§1) Solvent: 24.5 parts by weight of acetone
(§2) • 24.5 parts by weight of dimethylacetamide Emulsifier: 1 part by weight of alkylaryl polyglycol ether
To produce a suitable preparation of active compound, 1 part by weight of active compound is mixed with the stated amounts of solvent and emulsifier, and the concentrate is diluted with water to the desired concentration. To test for protect activity, young plants are sprayed with the preparation of active compound at the stated rate of application. After the spray coating has dried on, the plants are inoculated with an aqueous spore suspension of Sphaerotheca fuliginea. The plants are then placed in a greenhouse at approximately 23° C. and a relative atmospheric humidity of approximately 70%. The test is evaluated 7 days after the inoculation. 0% means an efficacy which corresponds to that of the control, while an efficacy of 100% means that no disease is observed.

Phytophthora infestans = experiment: whole plant or invertebrate; details: for Efficacy in % found: Table A
Alternaria solani = experiment: Alternaria test (tomatoes)/protective; details: Table E; for pest or weed control at 12.5 ppm: 12.5 ppm a.i.
Protocol: as §1, §2
(§3) To produce a suitable preparation of active compound, 1 part by weight of active compound is mixed with the stated amounts of solvent and emulsifier, and the concentrate is diluted with water to the desired concentration. To test for protective activity, young plants are sprayed with the preparation of active compound at the stated rate of application. After the spray coating has dried on, the plants are inoculated with an aqueous spore suspension of Alternaria solani. The plants are then placed in an incubation cabinet at approximately 20° C. and a relative atmospheric humidity of 100%. The test is evaluated 3 days after the inoculation. 0% means an efficacy which corresponds to that of the control while an efficacy of 100% means that no disease is observed.

Botrytis cinerea = experiment: Botrytis test (beans)/protective; details: Table F
Protocol: as §1, §2
To produce a suitable preparation of active compound, 1 part by weight of active compound is mixed with the stated amounts of solvent and emulsifier, and the concentrate is diluted with water to the desired concentration. To test for protective activity, young plants are sprayed with the preparation of active compound. After the spray coating has dried on, 2 small pieces of agar covered with growth of Botrytis cinerea are placed on each leaf. The inoculated plants are placed in a darkened chamber at 20° C. and a relative atmospheric humidity of 100%. 2 days after the inoculation, the size of the lesions on the leaves is evaluated. 0% means an efficacy which corresponds to that of the control, while an efficacy of 100% means that no disease is observed.

Venturia inaequalis = experiment: Venturia test (apples)/protective; details: Table D, test 1
Protocol: as §1, §2
as §3, with “conidia” for “spore”, “the causal agent of apple scab (Venturia inaequalis) and” for “Alternaria solani. The plants are”, “remain for 1 day” for “placed”, “The plants are then placed in a greenhouse at approximately 21° C. and a relative atmospheric humidity of approximately 90%. The” for “The”, “10” for “3”, “control,” for “control”

[1] = Podosphaera fuliginea, 168 h, test 4, read-out: Efficacy in % found
[2] = Botrytis cinerea, 48 h, test 2, 50 ppm a.i., read-out: Efficacy in % found
[3] = Botrytis cinerea, 48 h, test 1, 25 ppm a.i., read-out: Efficacy in % found
[4] = Alternaria solani, 72 h, test 1, read-out: Efficacy in % found

## COc1ccccc1N1CCS/C1=C(/C#N)Sc1cc(C(F)(F)F)ccc1F [(15.57), flutianil]
Sphaerotheca fuliginea; test 2, 0.5 ppm a.i.
  Efficacy in % found: 48%

## O=C1c2ccccc2C(=O)N1SC(Cl)(Cl)Cl [(5.9), folpet]
Phytophthora infestans; Phytophthora infestans, 72 h, read-out: Efficacy in % found, Table A, test 3, 50 ppm a.i.
  pest or weed control at 50 ppm: 32%

## CO/C=C(/C(=O)OC)c1ccccc1Oc1cc(Oc2ccccc2C#N)ncn1 [(3.2), azoxystrobin]
Alternaria solani; test 1, 0.5 ppm a.i.
  Efficacy in % found: 40%
Botrytis cinerea; test 1, 25 ppm a.i.
  Efficacy in % found: 0%
Phytophthora infestans; test 1, 1 ppm a.i.
  Efficacy in % found: 23%

## COC(=O)NC(=S)Nc1ccccc1NC(=S)NC(=O)OC [(4.8), thiophanate-methyl]
Botrytis cinerea; Botrytis cinerea, 48 h, test 3, 12.5 ppm a.i., read-out: Efficacy in % found
  pest or weed control at 12.5 ppm: 84%
Phytophthora infestans; Phytophthora infestans, 72 h, read-out: Efficacy in % found, Table A, test 6, 250 ppm a.i.
  pest or weed control at 250 ppm: 29%

## CCOc1ccc(NC(=O)OC(C)C)cc1OCC [(4.3), diethofencarb]
Botrytis cinerea; Botrytis cinerea, 48 h, test 3, 50 ppm a.i., read-out: Efficacy in % found
  pest or weed control at 50 ppm: 29%

## CC(C)(C)C(O)C(Oc1ccc(-c2ccccc2)cc1)n1cncn1 (centres unmarked) [(1.3), bitertanol]
Sphaerotheca fuliginea; [1]
  pest or weed control at 5 ppm: 71%

## N#Cc1c[nH]cc1-c1cccc2c1OC(F)(F)O2 [(13.2), fludioxonil]
Botrytis cinerea; Botrytis cinerea, 48 h, test 2, 5 ppm a.i., read-out: Efficacy in % found
  pest or weed control at 5 ppm: 84%

## Cc1cc(C)nc(Nc2ccccc2)n1 [(7.7), pyrimethanil]
Botrytis cinerea; [2]
  pest or weed control at 50 ppm: 0%

## N#Cc1ccccc1NC(=O)c1snc(Cl)c1Cl [(15.22), isotianil]
Botrytis cinerea; test 2, 50 ppm a.i.
  Efficacy in % found: 0%

## CC(C)[C@H](NC(=O)O)C(=O)N[C@H](C)c1nc2ccc(F)cc2s1 [(9.1), benthiavalicarb]
Phytophthora infestans; test 1, 0.25 ppm a.i.
  Efficacy in % found: 12%

## Cn1cc(C(=O)Nc2ccccc2-c2ccccc2C(F)(F)F)c(C(F)(F)F)n1 [(2.26), 1-methyl-3-(trifluoromethyl)-N-[2′-(trifluoromethyl)biphenyl-2-yl]-1H-pyrazole-4-carboxamide]
Botrytis cinerea; [3]
  pest or weed control at 25 ppm: 89%
Venturia inaequalis; 1 ppm a.i.
  Efficacy in % found: 54%

## Cc1ccc(C(C)NC(=O)[C@@H](NC(=O)OC(C)C)C(C)C)cc1 (some centres unmarked) [(9.4), iprovalicarb]
Phytophthora infestans; test 7, 1.25 ppm a.i.
  Efficacy in % found: 42%

## CC(C)(C)C(=O)C(Oc1ccc(Cl)cc1)n1cncn1 (centres unmarked) [(1.50), triadimefon]
Sphaerotheca fuliginea; [1]
  pest or weed control at 5 ppm: 19%

## metiram [(5.21)]
Phytophthora infestans; test 3, 50 ppm a.i.
  Efficacy in % found: 17%

## N#Cc1c[nH]cc1-c1cccc(Cl)c1Cl [(13.1), fenpiclonil]
Botrytis cinerea; Botrytis cinerea, 48 h, test 2, 10 ppm a.i., read-out: Efficacy in % found
  pest or weed control at 10 ppm: 0%

## N#Cc1c(Cl)c(Cl)c(Cl)c(C#N)c1Cl [(5.4), chlorothalonil]
Phytophthora infestans; Phytophthora infestans, 72 h, read-out: Efficacy in % found, Table A, test 5, 2.5 ppm a.i.
  pest or weed control at 2.5 ppm: 50%

## CCCCNC(=O)n1c(NC(=O)OC)nc2ccccc21 [(4.1), benomyl]
Botrytis cinerea; Botrytis cinerea, 48 h, test 3, 2.5 ppm a.i., read-out: Efficacy in % found
  pest or weed control at 2.5 ppm: 8%

## CCO[PH](=O)O [(15.20), fosetyl-Al]
Phytophthora infestans; test 7, 62.5 ppm a.i.
  Efficacy in % found: 53%

## COc1ccc(C(=CC(=O)N2CCOCC2)c2ccc(Cl)cc2)cc1OC [(9.2), dimethomorph]
Phytophthora infestans; Phytophthora infestans, 72 h, read-out: Efficacy in % found, Table A, test 2, 0.5 ppm a.i.
  pest or weed control at 0.5 ppm: 28%

## propineb [(5.23)]
Phytophthora infestans; test 6, 50 ppm a.i.
  Efficacy in % found: 26%

## N#Cc1sc2c(=O)c3ccccc3c(=O)c=2sc1C#N [(5.6), dithianon]
Phytophthora infestans; Phytophthora infestans, 72 h, read-out: Efficacy in % found, Table A, test 6, 25 ppm a.i.
  pest or weed control at 25 ppm: 54%

## CSC1=N[C@@](C)(c2ccccc2)C(=O)N1Nc1ccccc1 [(3.7), fenamidone]
Phytophthora infestans; Phytophthora infestans, 72 h, read-out: Efficacy in % found, Table A, test 1, 1 ppm a.i.
  pest or weed control at 1 ppm: 62%

## O=C(NCc1ncc(C(F)(F)F)cc1Cl)c1c(Cl)cccc1Cl [(15.17), fluopicolide]
Phytophthora infestans; test 1, 1 ppm a.i.
  Efficacy in % found: 0%

## O=C1C2CC=CCC2C(=O)N1SC(Cl)(Cl)Cl (centres unmarked) [(5.3), captan]
Phytophthora infestans; Phytophthora infestans, 72 h, read-out: Efficacy in % found, Table A, test 6, 50 ppm a.i.
  pest or weed control at 50 ppm: 60%

## CCCCCOC(=O)Nc1cccc(CON=C(c2ccccc2)c2nnnn2C)n1 [(15.66), pentyl {6-[({[(1-methyl-1H-tetrazol-5-yl)(phenyl)methylidene]amino}oxy)-methyl]pyridin-2-yl}carbamate]
Phytophthora infestans; Phytophthora infestans, 72 h, read-out: Efficacy in % found, Table A, test 5, 0.5 ppm a.i.
  pest or weed control at 0.5 ppm: 30%

## CCCCCCCCc1c(CC)nc2ncnn2c1N [(15.1), ametoctradin]
Phytophthora infestans; test 2, 2.5 ppm a.i.
  Efficacy in % found: 73%

## CC(C)NC(=O)N1CC(=O)N(c2cc(Cl)cc(Cl)c2)C1=O [(10.7), iprodione]
Alternaria solani; [4]
  pest or weed control at 12.5 ppm: 35%
Botrytis cinerea; [3]
  pest or weed control at 25 ppm: 0%

## Cc1cc(C(F)(F)F)nn1CC(=O)N1CCC(c2nc(C3=NO[C@@H](c4c(F)cccc4F)C3)cs2)CC1 [(15.88), 1-(4-{4-[(5R)-5-(2,6-difluorophenyl)-4,5-dihydro-1,2-oxazol-3-yl]-1,3-thiazol-2-yl}piperidin-1-yl)-2-[5-methyl-3-(trifluoromethyl)-1H-pyrazol-1-yl]ethanone]
Phytophthora infestans; Phytophthora infestans, 72 h, read-out: Efficacy in % found, Table A, test 5, 0.025 ppm a.i.
  pest or weed control at 0.025 ppm: 50%

## O=C(Nc1ccccc1)N(Cc1ccc(Cl)cc1)C1CCCC1 [(4.6), pencycuron]
Botrytis cinerea; [2]
  pest or weed control at 50 ppm: 0%

## Fc1ccc(Oc2ccnc3cc(Cl)cc(Cl)c23)cc1 [(13.3), quinoxyfen]
Sphaerotheca fuliginea; Podosphaera fuliginea, 168 h, test 3, read-out: Efficacy in % found
  pest or weed control at 5 ppm: 37%

## CC(C1CC1)C(O)(Cn1cncn1)c1ccc(Cl)cc1 (centres unmarked) [(1.5), cyproconazole]
Alternaria solani; Alternaria solani, 72 h, test 2, 0.5 ppm a.i., read-out: Efficacy in % found
  pest or weed control at 0.5 ppm: 0%

## Fc1ccc([C@]2(Cn3cncn3)O[C@H]2c2ccccc2Cl)cc1 (racemic) [(1.12), epoxiconazole]
Botrytis cinerea; [3]
  pest or weed control at 25 ppm: 49%
Sphaerotheca fuliginea; Podosphaera fuliginea, 168 h, test 1, 0.5 ppm a.i., read-out: Efficacy in % found
  pest or weed control at 0.5 ppm: 30%

## mancozeb [(5.19)]
Phytophthora infestans; test 3, 50 ppm a.i.
  Efficacy in % found: 53%

## CC1(C(=O)Nc2ccc(O)c(Cl)c2Cl)CCCCC1 [(1.16), fenhexamid]
Alternaria solani; [4]
  pest or weed control at 12.5 ppm: 0%
Venturia inaequalis; 12.5 ppm a.i.
  Efficacy in % found: 0%

## COC(=O)CC(NC(=O)[C@@H](NC(=O)OC(C)C)C(C)C)c1ccc(Cl)cc1 (some centres unmarked) [(9.10), valifenalate]
Phytophthora infestans; test 2, 0.5 ppm a.i.
  Efficacy in % found: 58%

## phosphorous acid and its salts [(15.62)]
Phytophthora infestans; test 6, 500 ppm a.i.
  Efficacy in % found: 54%

## CC1COC(Cn2cncn2)(c2ccc(Oc3ccc(Cl)cc3)cc2Cl)O1 (centres unmarked) [(1.7), difenoconazole]
Sphaerotheca fuliginea; [1]
  pest or weed control at 5 ppm: 38%

## COC(=O)[C@@H](C)N(C(=O)Cc1ccccc1)c1c(C)cccc1C [(12.2), benalaxyl-M (kiralaxyl)]
Phytophthora infestans; test 4, 1 ppm a.i.
  Efficacy in % found: 19%

## CCCN(CC)CC1COC2(CCC(C(C)(C)C)CC2)O1 (centres unmarked) [(1.46), spiroxamine]
Sphaerotheca fuliginea; Podosphaera fuliginea, 168 h, test 3, 100 ppm a.i., read-out: Efficacy in % found
  pest or weed control at 100 ppm: 10%

## [Cu+2].[OH-].[OH-] [(5.16), copper hydroxide]
Phytophthora infestans; test 6, 25 ppm a.i.
  Efficacy in % found: 43%

## metalaxyl-M (mefenoxam) [(12.10)]
Phytophthora infestans; test 7, 1.25 ppm a.i.
  Efficacy in % found: 13%

## COC(=O)C(C)N(C(=O)Cc1ccccc1)c1c(C)cccc1C (centres unmarked) [(12.1), benalaxyl]
Phytophthora infestans; Phytophthora infestans, 72 h, read-out: Efficacy in % found, Table A, test 4, 1 ppm a.i.
  pest or weed control at 1 ppm: 26%

## COc1cc(C)c(C(=O)c2c(OC)ccc(Br)c2C)c(OC)c1OC [(15.25), metrafenone]
Sphaerotheca fuliginea; Podosphaera fuliginea, 168 h, test 2, 10 ppm a.i., read-out: Efficacy in % found
  pest or weed control at 10 ppm: 21%
